Reference: ChEMBL document CHEMBL3885861, “Open TG-GATES”

Organism: Rattus norvegicus
Test: Open TG-GATES - Regimen: Daily Repeat
Type: toxicity, organism-based, Sprague-Dawley
Set-up: regimen Daily Repeat, gender Male, age 6 weeks
Conditions: in vivo, po, 1000 mg/kg, route gavage, dose level High; for APTT / Bas / Eos / Fbg / Hb / Ht / Lym / MCH / MCHC / MCV / Mono / Neu / PT / Plat / RBC / Ret / WBC: tissue Blood; for KIDNEY_L / KIDNEY_R / KIDNEY_TOTAL: tissue Kidney; for LIVER: tissue Liver; for A/G / ALP / ALT / AST / BUN / CRE / Ca / Cl / DBIL / GLC / IP / K / LDH / Na / PL / RALB / TBIL / TC / TG / TP / gamma-GTP: tissue Plasma

`Cc1nnc2n1-c1ccc(Cl)cc1C(c1ccccc1Cl)=NC2` [TRIAZOLAM] was tested, and the TERMINAL_BW (72 h, time 3 day) was 221.7 g, the APTT (72 h, time 3 day) was 18.3 s and the Bas (72 h, time 3 day) was 0.2%. It also gave an Eos (72 h, time 3 day) of 1%, a Fbg (72 h, time 3 day) of 278.6 mg/dL and a Hb (72 h, time 3 day) of 13.8 g/dL. It also gave a Ht (72 h, time 3 day) of 41.1%, a Lym (72 h, time 3 day) of 78.2% and an MCH (72 h, time 3 day) of 21.3 pg. It also gave an MCHC (72 h, time 3 day) of 33.6%, an MCV (72 h, time 3 day) of 63.4 fL and a Mono (72 h, time 3 day) of 3.6%. It also gave a Neu (72 h, time 3 day) of 16%, a PT (72 h, time 3 day) of 13 s and a Plat (72 h, time 3 day) of 124.4 x10_4/uL. The RBC (72 h, time 3 day) was 650.2 x10_4/ul, the Ret (72 h, time 3 day) was 6.4% and the WBC (72 h, time 3 day) was 105.8 x10_2/uL. For the same compound, the KIDNEY_L (72 h, time 3 day) was 1 g, the KIDNEY_R (72 h, time 3 day) was 1 g and the KIDNEY_TOTAL (72 h, time 3 day) was 1.9 g. It also gave an LIVER (72 h, time 3 day) of 10.9 g, an A/G (72 h, time 3 day) of 0.9 and an ALP (72 h, time 3 day) of 1527.4 IU/L. It also gave an ALT (72 h, time 3 day) of 56 IU/L, an AST (72 h, time 3 day) of 67.4 IU/L and a BUN (72 h, time 3 day) of 14.4 mg/dL. For the same compound, the CRE (72 h, time 3 day) was 0.2 mg/dL, the Ca (72 h, time 3 day) was 11.5 mg/dL and the Cl (72 h, time 3 day) was 102.8 meq/L. For the same compound, the DBIL (72 h, time 3 day) was 0.016 mg/dL, the GLC (72 h, time 3 day) was 167 mg/dL and the IP (72 h, time 3 day) was 9.1 mg/dL. For the same compound, the K (72 h, time 3 day) was 4.2 meq/L, the LDH (72 h, time 3 day) was 98.4 IU/L and the Na (72 h, time 3 day) was 141.6 meq/L. It also gave a PL (72 h, time 3 day) of 157 mg/dL, an RALB (72 h, time 3 day) of 2.6 g/dL and a TBIL (72 h, time 3 day) of 0.048 mg/dL. For the same compound, the TC (72 h, time 3 day) was 81.2 mg/dL, the TG (72 h, time 3 day) was 84.2 mg/dL and the TP (72 h, time 3 day) was 5.6 g/dL. For the same compound, the gamma-GTP (72 h, time 3 day) was 1 IU/L, the TERMINAL_BW ([…], time 7 day) was 254.6 g and the TERMINAL_BW ([…], time 14 day) was 312.6 g. For the same compound, the TERMINAL_BW ([…], time 28 day) was 383.1 g, the APTT ([…], time 7 day) was 17.8 s and the Bas ([…], time 7 day) was 0%. It also gave an Eos ([…], time 7 day) of 1%, a Fbg ([…], time 7 day) of 282.6 mg/dL and a Hb ([…], time 7 day) of 13.7 g/dL. It also gave a Ht ([…], time 7 day) of 40.7%, a Lym ([…], time 7 day) of 74% and an MCH ([…], time 7 day) of 20.9 pg. For the same compound, the MCHC ([…], time 7 day) was 33.6%, the MCV ([…], time 7 day) was 62.1 fL and the Mono ([…], time 7 day) was 2.6%. It also gave a Neu ([…], time 7 day) of 21.6%, a PT ([…], time 7 day) of 12.8 s and a Plat ([…], time 7 day) of 129.1 x10_4/uL. The RBC ([…], time 7 day) was 656.2 x10_4/ul, the Ret ([…], time 7 day) was 5.5% and the WBC ([…], time 7 day) was 113.3 x10_2/uL. The APTT ([…], time 14 day) was 18.3 s, the Bas ([…], time 14 day) was 0.4% and the Eos ([…], time 14 day) was 1%. It also gave a Fbg ([…], time 14 day) of 249.6 mg/dL, a Hb ([…], time 14 day) of 14.2 g/dL and a Ht ([…], time 14 day) of 43.5%. It also gave a Lym ([…], time 14 day) of 78.6%, an MCH ([…], time 14 day) of 20 pg and an MCHC ([…], time 14 day) of 32.6%. It also gave an MCV ([…], time 14 day) of 61.2 fL, a Mono ([…], time 14 day) of 2.6% and a Neu ([…], time 14 day) of 16.8%. The PT ([…], time 14 day) was 13.3 s, the Plat ([…], time 14 day) was 123.4 x10_4/uL and the RBC ([…], time 14 day) was 711.4 x10_4/ul. For the same compound, the Ret ([…], time 14 day) was 5.3%, the WBC ([…], time 14 day) was 135.4 x10_2/uL and the APTT ([…], time 28 day) was 18.3 s. The Bas ([…], time 28 day) was 0.2%, the Eos ([…], time 28 day) was 1.4% and the Fbg ([…], time 28 day) was 273 mg/dL. For the same compound, the Hb ([…], time 28 day) was 15.3 g/dL, the Ht ([…], time 28 day) was 45.2% and the Lym ([…], time 28 day) was 76.2%. For the same compound, the MCH ([…], time 28 day) was 19.7 pg, the MCHC ([…], time 28 day) was 33.9% and the MCV ([…], time 28 day) was 58.2 fL. The Mono ([…], time 28 day) was 2.2%, the Neu ([…], time 28 day) was 18.4% and the PT ([…], time 28 day) was 13.2 s. It also gave a Plat ([…], time 28 day) of 112.9 x10_4/uL, an RBC ([…], time 28 day) of 776.4 x10_4/ul and a Ret ([…], time 28 day) of 2.4%. It also gave a WBC ([…], time 28 day) of 103.3 x10_2/uL, a KIDNEY_L ([…], time 7 day) of 1.1 g and a KIDNEY_R ([…], time 7 day) of 1.1 g. The KIDNEY_TOTAL ([…], time 7 day) was 2.3 g, the KIDNEY_L ([…], time 14 day) was 1.3 g and the KIDNEY_R ([…], time 14 day) was 1.3 g. It also gave a KIDNEY_TOTAL ([…], time 14 day) of 2.5 g, a KIDNEY_L ([…], time 28 day) of 1.4 g and a KIDNEY_R ([…], time 28 day) of 1.4 g. The KIDNEY_TOTAL ([…], time 28 day) was 2.8 g, the LIVER ([…], time 7 day) was 12.4 g and the LIVER ([…], time 14 day) was 14.2 g. It also gave an LIVER ([…], time 28 day) of 15.2 g, an A/G ([…], time 7 day) of 0.9 and an ALP ([…], time 7 day) of 1848.4 IU/L. It also gave an ALT ([…], time 7 day) of 47.2 IU/L, an AST ([…], time 7 day) of 67.2 IU/L and a BUN ([…], time 7 day) of 15.8 mg/dL. For the same compound, the CRE ([…], time 7 day) was 0.2 mg/dL, the Ca ([…], time 7 day) was 11.2 mg/dL and the Cl ([…], time 7 day) was 105 meq/L. It also gave a DBIL ([…], time 7 day) of 0.014 mg/dL, a GLC ([…], time 7 day) of 176.6 mg/dL and an IP ([…], time 7 day) of 7.4 mg/dL. The K ([…], time 7 day) was 4.7 meq/L, the LDH ([…], time 7 day) was 86.2 IU/L and the Na ([…], time 7 day) was 142 meq/L. For the same compound, the PL ([…], time 7 day) was 160.8 mg/dL, the RALB ([…], time 7 day) was 2.7 g/dL and the TBIL ([…], time 7 day) was 0.032 mg/dL. It also gave a TC ([…], time 7 day) of 78.6 mg/dL, a TG ([…], time 7 day) of 108.2 mg/dL and a TP ([…], time 7 day) of 5.7 g/dL. The gamma-GTP ([…], time 7 day) was 1 IU/L, the A/G ([…], time 14 day) was 0.9 and the ALP ([…], time 14 day) was 1576.6 IU/L. It also gave an ALT ([…], time 14 day) of 48 IU/L, an AST ([…], time 14 day) of 71.6 IU/L and a BUN ([…], time 14 day) of 17.8 mg/dL. The CRE ([…], time 14 day) was 0.2 mg/dL, the Ca ([…], time 14 day) was 10.8 mg/dL and the Cl ([…], time 14 day) was 103.6 meq/L. It also gave a DBIL ([…], time 14 day) of 0.01 mg/dL, a GLC ([…], time 14 day) of 188.4 mg/dL and an IP ([…], time 14 day) of 7.7 mg/dL. The K ([…], time 14 day) was 4.1 meq/L, the LDH ([…], time 14 day) was 112.2 IU/L and the Na ([…], time 14 day) was 141.8 meq/L. It also gave a PL ([…], time 14 day) of 157.6 mg/dL, an RALB ([…], time 14 day) of 2.6 g/dL and a TBIL ([…], time 14 day) of 0.036 mg/dL. It also gave a TC ([…], time 14 day) of 74.8 mg/dL, a TG ([…], time 14 day) of 127.4 mg/dL and a TP ([…], time 14 day) of 5.7 g/dL. The gamma-GTP ([…], time 14 day) was 1 IU/L, the A/G ([…], time 28 day) was 0.8 and the ALP ([…], time 28 day) was 950 IU/L. It also gave an ALT ([…], time 28 day) of 41.2 IU/L, an AST ([…], time 28 day) of 68.8 IU/L and a BUN ([…], time 28 day) of 15.4 mg/dL. The CRE ([…], time 28 day) was 0.2 mg/dL, the Ca ([…], time 28 day) was 10.5 mg/dL and the Cl ([…], time 28 day) was 105.2 meq/L. The DBIL ([…], time 28 day) was 0.002 mg/dL, the GLC ([…], time 28 day) was 181 mg/dL and the IP ([…], time 28 day) was 6 mg/dL. The K ([…], time 28 day) was 4 meq/L, the LDH ([…], time 28 day) was 75 IU/L and the Na ([…], time 28 day) was 142.2 meq/L. It also gave a PL ([…], time 28 day) of 159.8 mg/dL, an RALB ([…], time 28 day) of 2.8 g/dL and a TBIL ([…], time 28 day) of 0.046 mg/dL. It also gave a TC ([…], time 28 day) of 79.8 mg/dL, a TG ([…], time 28 day) of 92 mg/dL and a TP ([…], time 28 day) of 6.1 g/dL. For the same compound, the gamma-GTP ([…], time 28 day) was 1.2 IU/L.
